Molecules are shown by their SMILES. Structures can show the parent of a compound that is named as a salt. Where two headings read alike, the source gives them in different places.

For data set [1] the following is noted: cited from earlier work.
The nature of data set [2]: Determination of SQR solubility in oils, surfactants and co-surfactants. It counts as physicochemical. To be noted: ethanol.
For data set [3] the following is noted: depending on the dosage form; reported, ref not given; cited from earlier work.

For the compound `CC(C)(C)NC(=O)[C@@H]1C[C@@H]2CCCC[C@@H]2CN1C[C@@H](O)[C@H](Cc1ccccc1)NC(=O)[C@H](CC(N)=O)NC(=O)c1ccc2ccccc2n1` [SQR, Saquinavir mesylate], the aqueous solubility in data set [1] (pH of 6.5) was 0.073 mg/mL; in data set [1] (pH of 7.4), 0.036 mg/mL. In data set [2], this compound returned a solubility at 72 h of 126 mg/mL. In addition, in data set [3], the oral bioavailability is reported as 0.7–4.0%.

By aqueous solubility is commonly meant how much of the substance goes into solution per volume. For orientation: solubility means the dissolved amount per volume that the medium holds.

The values are drawn from publication PMC6830379 (International Journal of Nanomedicine, 2019).
